In brackets after ≈: the same amount, converted by molar mass.
Target: T1, rat intestinal α-glucosidase (substrate pNPG)
T1 construct: gene Si; crude native enzyme from Sigma rat intestinal acetone powder
Experiment: colorimetric p-nitrophenol release, […] nm
Format: biochemical
Details: substrate 4 mM pNPG (added stock); sodium phosphate buffer; 37°C, 30 min; crude enzyme

C[C@H]1O[C@H](O[C@H]2[C@H](O)[C@@H](O)[C@@H](O[C@H]3[C@H](O)[C@@H](O)C(O)O[C@@H]3CO)O[C@@H]2CO)[C@H](O)[C@@H](O)[C@@H]1N[C@H]1C=C(CO)[C@@H](O)[C@H](O)[C@H]1O (stereo partly shown) [acarbose]
IC50: 57.79 ± 0.66 µg/mL (≈ 89.5 µM)

Reference: publication PMC3668304, “Antidiabetic and antioxidant properties of Ficus deltoidea fruit extracts and fractions” (BMC Complementary and Alternative Medicine, 2013)
